# According to patent US4138554A, “7-[D-α-(4-Hydroxy-1,5-naphthyridine-3-carboxamido)-α-phenyl (and p-hydroxyphenyl)acetamido]-3-carbamoyloxymethyl-3-cephem-4-carboxylic acids” (priority 1977, dated 1979):
# Read-outs that look alike come from different tables or passages of the source.
# Key:
# Format in all cases: cell-based
# Pseudomonas aeruginosa = experiment: MIC by agar dilution against 61 strains of Pseudomonas aeruginosa, secondary evaluation; settings: for MIC: Pseudomonas aeruginosa
# Method: (§1) Minimum inhibitory concentrations (MIC) of BB-S520 were determined by serial two-fold agar dilution method using Steers' apparatus on Meuller-Hinton agar plate against 31 test organisms for the primary screening and also against 61 strains of Pseudomonas aeruginosa for the secondary evaluation. The results are shown in Table 1 and Table 2 along with those of BB-S514 and sulbenicillin.
# (§2) Minimum inhibitory concentrations (MIC) of cephalosporins in the present study were determined by serial two-fold agar dilution method using Steers' apparatus on Mueller-Hinton agar plate against 31 test organisms for the primary screening and also against 61 strains of Pseudomonas aeruginosa for the secondary evaluation.
# P. mirabilis = experiment: MIC by serial two-fold agar dilution (Mueller-Hinton agar), P. mirabilis; settings: Proteus mirabilis; P. mirabilis A9900, Table 6; read-out: MIC
# Method: as §1, §2
# E. cloacae = experiment: MIC by serial two-fold agar dilution (Mueller-Hinton agar), E. cloacae; settings: Enterobacter cloacae
# Method: as §1, §2
# S. marcescens = experiment: MIC by serial two-fold agar dilution (Mueller-Hinton agar), S. marcescens; settings: Serratia marcescens; S. marcescens A20019, Table 6; read-out: MIC
# Method: as §1, §2
# K. pneumoniae = experiment: MIC by serial two-fold agar dilution (Mueller-Hinton agar), K. pneumoniae; settings: Klebsiella pneumoniae, K. pneumoniae A9977, Table 6
# Method: as §1, §2
# S. aureus = experiment: MIC by serial two-fold agar dilution (Mueller-Hinton agar), S. aureus; settings: Staphylococcus aureus
# Method: as §1, §2
# P. morganii = experiment: MIC by serial two-fold agar dilution (Mueller-Hinton agar), P. morganii; settings: Morganella morganii; P. morganii A9553, Table 6; read-out: MIC
# Method: as §1, §2
# S. enteritidis = experiment: MIC by serial two-fold agar dilution (Mueller-Hinton agar), S. enteritidis; settings: Salmonella enterica; S. enteritidis A9531, Table 6; read-out: MIC
# Method: as §1, §2
# E. coli = experiment: MIC by serial two-fold agar dilution (Mueller-Hinton agar), E. coli; settings: Escherichia coli, read-out: MIC
# Method: as §1, §2
# P. vulgaris = experiment: MIC by serial two-fold agar dilution (Mueller-Hinton agar), P. vulgaris; settings: Proteus vulgaris; P. vulgaris A9539, Table 6; read-out: MIC
# Method: as §1, §2
# P. aeruginosa = experiment: MIC by serial two-fold agar dilution (Mueller-Hinton agar), P. aeruginosa, primary screening
# Method: as §1, §2
# Klebsiella sp. = experiment: MIC by serial two-fold agar dilution (Mueller-Hinton agar), Klebsiella sp.; settings: Klebsiella sp. A20452, Table 6; read-out: MIC
# Method: as §1, §2
# Pseudomonas sp. = experiment: MIC by serial two-fold agar dilution (Mueller-Hinton agar), Pseudomonas sp.; settings: Pseudomonas sp. A20358, Table 6
# Method: as §2
smiles,measurement,setting,value
CCN1CCN(C(=O)NC(C(=O)N[C@@H]2C(=O)N3[C@@H]2SC(C)(C)[C@@H]3C(=O)O)c2ccccc2)C(=O)C1=O (stereo partly shown) [T-1220],Rel. Act. (SBPC=100%),"Pseudomonas aeruginosa; 61 strains of Pseudomonas aeruginosa, Table 7",544%
same,MIC,"Pseudomonas aeruginosa; 61 strains of Pseudomonas aeruginosa, Table 7, read-out: Geometric Mean of MIC",4.3 mg/L
same,MIC,"Pseudomonas aeruginosa; BBRI Pa-No. 1, D15, Table 7, read-out: MIC",12.5 mg/L
same,MIC,"Pseudomonas aeruginosa; BBRI Pa-No. 2, VA, Table 7, read-out: MIC",3.1 mg/L
same,MIC,"Pseudomonas aeruginosa; BBRI Pa-No. 3, 1449VA, Table 7, read-out: MIC",1.6 mg/L
same,MIC,"Pseudomonas aeruginosa; BBRI Pa-No. 4, H9 D113, Table 7, read-out: MIC",3.1 mg/L
same,MIC,"Pseudomonas aeruginosa; BBRI Pa-No. 5, N4865KC, Table 7, read-out: MIC",1.6 mg/L
same,MIC,"Pseudomonas aeruginosa; BBRI Pa-No. 6, No. 5, Table 7, read-out: MIC",25 mg/L
same,MIC,"Pseudomonas aeruginosa; BBRI Pa-No. 7, Table 7, read-out: MIC",3.1 mg/L
same,MIC,"Pseudomonas aeruginosa; BBRI Pa-No. 8, Table 7, read-out: MIC",3.1 mg/L
same,MIC,"Pseudomonas aeruginosa; BBRI Pa-No. 9, Yale, Table 7, read-out: MIC",3.1 mg/L
same,MIC,"Pseudomonas aeruginosa; BBRI Pa-No. 10, Table 7, read-out: MIC",> 100 mg/L
same,MIC,"Pseudomonas aeruginosa; BBRI Pa-No. 11, Table 7, read-out: MIC",3.1 mg/L
same,MIC,"Pseudomonas aeruginosa; BBRI Pa-No. 12, Table 7, read-out: MIC",6.3 mg/L
same,MIC,"Pseudomonas aeruginosa; BBRI Pa-No. 14, Table 7, read-out: MIC",1.6 mg/L
same,MIC,"Pseudomonas aeruginosa; BBRI Pa-No. 15, Table 7, read-out: MIC",6.3 mg/L
same,MIC,"Pseudomonas aeruginosa; BBRI Pa-No. 16, No. 130, Table 7, read-out: MIC",0.8 mg/L
same,MIC,"Pseudomonas aeruginosa; BBRI Pa-No. 17, H6 D114, Table 7, read-out: MIC",25 mg/L
same,MIC,"Pseudomonas aeruginosa; BBRI Pa-No. 18, H8 D121, Table 7, read-out: MIC",50 mg/L
same,MIC,"Pseudomonas aeruginosa; BBRI Pa-No. 19, Table 7, read-out: MIC",0.8 mg/L
same,MIC,"Pseudomonas aeruginosa; BBRI Pa-No. 20, Table 7, read-out: MIC",6.3 mg/L
same,MIC,"Pseudomonas aeruginosa; BBRI Pa-No. 21, Table 7, read-out: MIC",3.1 mg/L
same,MIC,"Pseudomonas aeruginosa; BBRI Pa-No. 23, Table 7, read-out: MIC",3.1 mg/L
same,MIC,"Pseudomonas aeruginosa; BBRI Pa-No. 24, Table 7, read-out: MIC",> 100 mg/L
same,MIC,"Pseudomonas aeruginosa; BBRI Pa-No. 25, Table 7, read-out: MIC",1.6 mg/L
same,MIC,"Pseudomonas aeruginosa; BBRI Pa-No. 26, Ps32, Table 7, read-out: MIC",1.6 mg/L
same,MIC,"Pseudomonas aeruginosa; BBRI Pa-No. 28, CPH1C527/72, Table 7, read-out: MIC",6.3 mg/L
same,MIC,"Pseudomonas aeruginosa; BBRI Pa-No. 29, D122, Table 7, read-out: MIC",3.1 mg/L
same,MIC,"Pseudomonas aeruginosa; BBRI Pa-No. 30, Table 7, read-out: MIC",6.3 mg/L
same,MIC,"Pseudomonas aeruginosa; BBRI Pa-No. 31, Table 7, read-out: MIC",1.6 mg/L
same,MIC,"Pseudomonas aeruginosa; BBRI Pa-No. 32, Table 7, read-out: MIC",3.1 mg/L
same,MIC,"Pseudomonas aeruginosa; BBRI Pa-No. 33, Table 7, read-out: MIC",6.3 mg/L
same,MIC,"Pseudomonas aeruginosa; BBRI Pa-No. 34, Table 7, read-out: MIC",3.1 mg/L
same,MIC,"Pseudomonas aeruginosa; BBRI Pa-No. 35, Table 7, read-out: MIC",6.3 mg/L
same,MIC,"Pseudomonas aeruginosa; BBRI Pa-No. 36, Table 7, read-out: MIC",0.4 mg/L
same,MIC,"Pseudomonas aeruginosa; BBRI Pa-No. 37, Table 7, read-out: MIC",3.1 mg/L
same,MIC,"Pseudomonas aeruginosa; BBRI Pa-No. 38, Table 7, read-out: MIC",6.3 mg/L
same,MIC,"Pseudomonas aeruginosa; BBRI Pa-No. 39, Table 7, read-out: MIC",1.6 mg/L
same,MIC,"Pseudomonas aeruginosa; BBRI Pa-No. 41, Table 7, read-out: MIC",3.1 mg/L
same,MIC,"Pseudomonas aeruginosa; BBRI Pa-No. 42, Table 7, read-out: MIC",25 mg/L
same,MIC,"Pseudomonas aeruginosa; BBRI Pa-No. 43, Table 7, read-out: MIC",6.3 mg/L
same,MIC,"Pseudomonas aeruginosa; BBRI Pa-No. 44 (unnamed strain), Table 7, read-out: MIC",3.1 mg/L
same,MIC,"Pseudomonas aeruginosa; BBRI Pa-No. 51, Table 7, read-out: MIC",3.1 mg/L
same,MIC,"Pseudomonas aeruginosa; BBRI Pa-No. 52, Table 7, read-out: MIC",3.1 mg/L
same,MIC,"Pseudomonas aeruginosa; BBRI Pa-No. 53, Table 7, read-out: MIC",3.1 mg/L
same,MIC,"Pseudomonas aeruginosa; BBRI Pa-No. 54, Table 7, read-out: MIC",3.1 mg/L
same,MIC,"Pseudomonas aeruginosa; BBRI Pa-No. 55, Table 7, read-out: MIC",3.1 mg/L
same,MIC,"Pseudomonas aeruginosa; BBRI Pa-No. 56, Table 7, read-out: MIC",3.1 mg/L
same,MIC,"Pseudomonas aeruginosa; BBRI Pa-No. 57, Table 7, read-out: MIC",6.3 mg/L
same,MIC,"Pseudomonas aeruginosa; BBRI Pa-No. 58, Table 7, read-out: MIC",6.3 mg/L
same,MIC,"Pseudomonas aeruginosa; BBRI Pa-No. 59, Table 7, read-out: MIC",1.6 mg/L
same,MIC,"Pseudomonas aeruginosa; BBRI Pa-No. 60, Table 7, read-out: MIC",3.1 mg/L
same,MIC,"Pseudomonas aeruginosa; BBRI Pa-No. 61, Table 7, read-out: MIC",3.1 mg/L
same,MIC,"Pseudomonas aeruginosa; BBRI Pa-No. 62, Table 7, read-out: MIC",12.5 mg/L
same,MIC,"Pseudomonas aeruginosa; BBRI Pa-No. 64, Table 7, read-out: MIC",3.1 mg/L
same,MIC,"Pseudomonas aeruginosa; BBRI Pa-No. 65, Table 7, read-out: MIC",1.6 mg/L
same,MIC,"Pseudomonas aeruginosa; BBRI Pa-No. 66, Table 7, read-out: MIC",3.1 mg/L
same,MIC,"Pseudomonas aeruginosa; BBRI Pa-No. 67, Table 7, read-out: MIC",6.3 mg/L
same,MIC,"Pseudomonas aeruginosa; BBRI Pa-No. 68, Table 7, read-out: MIC",6.3 mg/L
same,MIC,"Pseudomonas aeruginosa; BBRI Pa-No. 69, Table 7, read-out: MIC",6.3 mg/L
same,MIC,"Pseudomonas aeruginosa; BBRI Pa-No. 70, K-Ps102(CR-102), Table 7, read-out: MIC",3.1 mg/L
same,MIC,"Pseudomonas aeruginosa; GN315, BBRI Pa-No. 27, GN315, Table 7, read-out: MIC",3.1 mg/L
same,MIC,"Pseudomonas aeruginosa; GN4925, BBRI Pa-No. 44, GN4925, Table 7, read-out: MIC",6.3 mg/L
CC1(C)S[C@@H]2[C@H](NC(=O)C(C(=O)O)c3ccccc3)C(=O)N2[C@H]1C(=O)O (stereo partly shown) [Carbenicillin],MIC,P. mirabilis,0.4 mg/L
same,MIC,"E. cloacae; E. cloacae A9656, Table 6",3.1 mg/L
same,MIC,"E. cloacae; E. cloacae A9657, Table 6",12.5 mg/L
same,MIC,"E. cloacae; E. cloacae A9659, Table 6",3.1 mg/L
same,MIC,S. marcescens,3.1 mg/L
same,MIC,K. pneumoniae,3.1 mg/L
same,MIC,"S. aureus; S. aureus BX-1633 A9606, Table 6, read-out: MIC",3.1 mg/L
same,MIC,"S. aureus; S. aureus Smith A9537, Table 6, read-out: MIC",0.2 mg/L
same,MIC,"S. aureus; S. aureus Smith A15907, Table 6",25 mg/L
same,MIC,"S. aureus; S. aureus Smith A20239, Table 6, read-out: MIC",3.1 mg/L
same,MIC,"S. aureus; S. aureus Smith A20240, Table 6, read-out: MIC",6.3 mg/L
same,MIC,"S. aureus; S. aureus Smith A20701, Table 6, read-out: MIC",25 mg/L
same,MIC,P. morganii,> 100 mg/L
same,MIC,S. enteritidis,0.8 mg/L
same,MIC,"E. coli; E. coli A9435, Table 6",6.3 mg/L
same,MIC,"E. coli; E. coli A9844, Table 6",0.2 mg/L
same,MIC,"E. coli; E. coli A10664, Table 6",0.8 mg/L
same,MIC,"E. coli; E. coli A20366, Table 6",> 100 mg/L
same,MIC,"E. coli; E. coli A20520, Table 6",3.1 mg/L
same,MIC,"E. coli; E. coli A20732, Table 6",100 mg/L
same,MIC,"E. coli; E. coli A20898, Table 6",> 100 mg/L
same,MIC,"E. coli; E. coli Juhl A15119, Table 6",1.6 mg/L
same,MIC,"E. coli; E. coli NIHJ, Table 6",0.4 mg/L
same,MIC,P. vulgaris,3.1 mg/L
same,MIC,"P. aeruginosa; P. aeruginosa A20229, Table 6",12.5 mg/L
same,MIC,P. aeruginosa; Pseudomonas aeruginosa,12.5 mg/L
same,MIC,"P. aeruginosa; Pseudomonas aeruginosa, P. aeruginosa A9843, Table 6, read-out: MIC",25 mg/L
same,MIC,"P. aeruginosa; Pseudomonas aeruginosa, P. aeruginosa A9930, Table 6, read-out: MIC",25 mg/L
same,MIC,"P. aeruginosa; Pseudomonas aeruginosa, P. aeruginosa A20717, Table 6, read-out: MIC",100 mg/L
same,MIC,Klebsiella sp.,6.3 mg/L
same,MIC,Pseudomonas sp.,6.3 mg/L
